Holding throughout (type): biochemical, Talaromyces emersonii
The subject of test [1] is EG V, EG VI and EG VII. Description: Effects of metal ions, reagents, phenolics and glycosides stated for all three enzymes. The settings on record: for inhibition by sulphydryl reagents: in the presence or absence of substrate; for effect of phenolic substances on enzyme activity: pre-incubation of enzyme with compound in the absence of substrate. Here is the method:
(§1) Substrate specificity on various polysaccharides and synthetic glycosides was evaluated by 15 measuring activity against a wide variety of carbohydrates (BBG, lichenan, CMC, other polysaccharides and synthetic glycosides) using the normal β-glucanase assay procedure. • Effects Of Metal Ions, Chemical Modification Reagents And Potential Inhibitors A range of monovalent, divalent and heavy metal ions, at final assay concentrations of 1.0 mM, were investigated for their potential effects on the activities of EG V, EG VI and EG VII, by incubating the enzymes with the chemicals and then conducting the normal enzyme assay. Finally, the inhibitor effects of glycosides, such as disaccharides, lactones and flavanoid glycosides on the purified enzymes were examined. Specified concentrations of each glycoside were included in normal assay cocktails and residual activity determined by comparison with controls (no glycoside present).
(§2) Activity was expressed as a % relative to a control (no metal ion present in incubation mixture). In general, heavy metal ions are thought to inactivate enzymes by forming covalent salts with cysteine, histidine or carboxyl groups. […] A selection of reagents known to modify amino acid R-groups in proteins were tested for their effects on EG V, EG VI and EG VII, both in the absence and presence of substrate (substrate-protective effects could be observed in this manner) (see Table 6).

Test [2] has as its system EG VII. As to the kind of experiment: Effects of metal ions, chemical modification reagents, detergents and potential inhibitors on EG VII. The settings on record: for EG VII activity, Enzyme + reagent (control = 100.0): Preincubation of enzyme with reagent for 30 min (50 C) prior to addition of substrate; for EG VII activity, Substrate + reagent (control = 100.0): Preincubation of substrate with reagent for 30 min (50 C) prior to addition of enzyme. As for the experimental part: as §1, §2

For test [3], the system named is EG V. As to the kind of experiment: Effects of metal ions, chemical modification reagents, detergents and potential inhibitors on EG V. The conditions noted are these: for EG V activity, Enzyme + reagent (control = 100.0): Preincubation of enzyme with reagent for 30 min (50 C) prior to addition of substrate; for EG V activity, Substrate + reagent (control = 100.0): Preincubation of substrate with reagent for 30 min (50 C) prior to addition of enzyme. As for the experimental part: as §1, §2

The test system of test [4] is EG VI. Description: Effects of metal ions, chemical modification reagents, detergents and potential inhibitors on EG VI. The conditions noted are these: for decrease in activity of EG VI: 1 mM metal ion, relative to control without metal ion; for EV VI activity, Enzyme + reagent (control = 100.0): Preincubation of enzyme with reagent for 30 min (50 C) prior to addition of substrate; for EGVI activity, Substrate + reagent (control = 100.0): Preincubation of substrate with reagent for 30 min (50 C) prior to addition of enzyme. Here is the method:
as §1, §2

“Also recorded” adds a separate entry of the source.

Turning to `[Fe+2]` [Fe^2+], in test [1] (1 mM metal ion), the “decrease in activity of all three enzymes” value is 35.4-88.0% and the “effect of metal ion on activity of all three enzymes” value was “markedly decreased activity”. The “enhancement of EG VII activity by SO4^2− salt relative to corresponding Cl^− salt” value in test [2] (1 mM) is roughly 4.5 fold. Besides, in test [2] (1 mM metal ion), the “effect of metal ion on EG VII” value is on record as “minimum effects”. The “increase in activity of EG V” value in test [3] (1 mM metal ion, relative to control without metal ion) is recorded as 20%. The “decrease in activity of EG VI” value in test [4] turned out to be 38.6%. Further, in test [4] (listed as Fe^3+), the “decrease in activity of EG VI” value is recorded as 53.6-59.3%.

Turning to `NC(=O)CI` [Iodoacetamide], the “inhibition by sulphydryl reagents” value in test [1] is “little or no inhibition”. Also, in test [2], the “EG VII activity, Enzyme + reagent (control = 100.0)” value came out at 101.6 and the “EG VII activity, Substrate + reagent (control = 100.0)” value was found to be 83.7. For the same molecule, in test [3], the “EG V activity, Enzyme + reagent (control = 100.0)” value came out at 103.6 and the “EG V activity, Substrate + reagent (control = 100.0)” value was 87.4. Also, in test [4], the “EV VI activity, Enzyme + reagent (control = 100.0)” value stood at 99.9 and the “EGVI activity, Substrate + reagent (control = 100.0)” value was determined as 122.6.

Turning to `[Mg+2]` [Mg^2+], in test [1] (1 mM metal ion), the “effect of metal ion on activity of all three enzymes” value was “enhanced the activity”. The “decrease of EG V activity by SO4^2− salt relative to Cl^− salt of same cation” value in test [3] (1 mM) was determined as 54.2%. In addition, the “decrease of EG VI activity by SO4^2− salt relative to Cl^− salt of same cation” value in test [4] (1 mM) is listed as 50.1%.

Consider `COc1cc(/C=C/C(=O)O)ccc1O` [ferulic acid], for which the “effect of phenolic substances on enzyme activity” value (“effect of phenolic substances” for short) in test [1] is “did not have a marked inhibitory effect”.

`Oc1cccc(-c2ccccc2)c1` [m-phenylphenol]: the “effect of phenolic substances” value in test [1] is “did not have a marked inhibitory effect”.

Turning to `OC[C@H]1O[C@H](O[C@H]2[C@H](O)[C@@H](O)[C@H](O)O[C@@H]2CO)[C@H](O)[C@@H](O)[C@@H]1O` [maltose], in test [1], the “effect of glycosides/disaccharides on activity of EG V-VII” value (“effect of glycosides/disaccharides” below) is given as “no apparent effect”.

Consider `OC[C@H]1O[C@H](OCC2O[C@@H](O)[C@H](O)[C@@H](O)[C@@H]2O)[C@H](O)[C@@H](O)[C@H]1O` (some centres unmarked) [melibiose], for which the “effect of glycosides/disaccharides” value in test [1] was “no apparent effect”.

Regarding `O=C(O)/C=C/c1ccccc1O` [o-coumaric acid], the “effect of phenolic substances” value in test [1] was “did not have a marked inhibitory effect”.

Take `O=C(O)c1cc[c]([Hg+])cc1.[OH-]` [p-Hydroxymercuribenzoate]: the “inhibition by sulphydryl reagents” value in test [1] was “little or no inhibition”. In test [2], the “EG VII activity, Enzyme + reagent (control = 100.0)” value was found to be 99.5 and the “EG VII activity, Substrate + reagent (control = 100.0)” value is given as 94.8. Further, in test [3], the “EG V activity, Enzyme + reagent (control = 100.0)” value turned out to be 92.8 and the “EG V activity, Substrate + reagent (control = 100.0)” value is listed as 261.7. Further, in test [4], the “EV VI activity, Enzyme + reagent (control = 100.0)” value was 98.3 and the “EGVI activity, Substrate + reagent (control = 100.0)” value was 125.0.

As for `O=C(O)c1ccc(O)c(O)c1` [protocatechuic acid], in test [1], the “effect of phenolic substances” value is “markedly activated”.

Consider `OCc1ccccc1O[C@@H]1O[C@H](CO)[C@@H](O)[C@H](O)[C@H]1O` [salicin], for which, in test [1], the “effect of glycosides/disaccharides” value was “no apparent effect”.

Take `OC[C@@H](O)[C@@H](O)[C@H](O)[C@@H](O)CO` [sorbitol]: the “effect of glycosides/disaccharides” value in test [1] is given as “no apparent effect”.

As for `OC[C@H]1O[C@@](CO)(O[C@H]2O[C@H](CO)[C@@H](O)[C@H](O)[C@H]2O)[C@@H](O)[C@@H]1O` [sucrose], the “effect of glycosides/disaccharides” value in test [1] is recorded as “no apparent effect”.

On to `COc1cc(C(=O)O)cc(OC)c1O` [syringic acid], for which the “effect of phenolic substances” value in test [1] was “did not have a marked inhibitory effect; also recorded: markedly activated”.

`O=C(OC[C@H]1O[C@@H](OC(=O)c2cc(O)c(O)c(OC(=O)c3cc(O)c(O)c(O)c3)c2)[C@H](OC(=O)c2cc(O)c(O)c(OC(=O)c3cc(O)c(O)c(O)c3)c2)[C@@H](OC(=O)c2cc(O)c(O)c(OC(=O)c3cc(O)c(O)c(O)c3)c2)[C@@H]1OC(=O)c1cc(O)c(O)c(OC(=O)c2cc(O)c(O)c(O)c2)c1)c1cc(O)c(O)c(OC(=O)c2cc(O)c(O)c(O)c2)c1` [tannic acid]: in test [1], the “effect of phenolic substances” value is given as “potent inhibitor”.

(Values after US20100028485A1, “TALAROMYCES EMERSONII ENZYME SYSTEMS” (priority 2006, published 2010).)
